Data taken from ChEMBL document CHEMBL4507275, “Data for DCP probe BI-2545” (2021).

Legend:
[1] = target: Muscarinic acetylcholine receptor M4 (Homo sapiens) (UniProt P08173); conditions: Compound concentration 10.0 uM
[2] = target: Cyclin-dependent kinase 4 (Homo sapiens) (UniProt P11802); conditions: Compound concentration 1000.0 nM
[3] = target: Receptor-interacting serine/threonine-protein kinase 4 (Homo sapiens) (UniProt P57078); conditions: Compound concentration 1000.0 nM
[4] = target: Tyrosine-protein kinase Yes (Homo sapiens) (UniProt P07947); conditions: Compound concentration 1000.0 nM
[5] = target: Mitogen-activated protein kinase kinase kinase kinase 3 (Homo sapiens) (UniProt Q8IVH8); conditions: Compound concentration 1000.0 nM
[6] = test system: Mast/stem cell growth factor receptor Kit (Homo sapiens), P10721 [D816V]; conditions: Compound concentration 1000.0 nM
[7] = target: Non-receptor tyrosine-protein kinase TYK2 (Homo sapiens) (UniProt P29597); conditions: Compound concentration 1000.0 nM
[8] = target: 5-hydroxytryptamine receptor 2B (Homo sapiens) (UniProt P41595); conditions: Compound concentration 10.0 uM
[9] = target: Tyrosine-protein kinase Fer (Homo sapiens) (UniProt P16591); conditions: Compound concentration 1000.0 nM
[10] = target: Mitogen-activated protein kinase kinase kinase 11 (Homo sapiens) (UniProt Q16584); conditions: Compound concentration 1000.0 nM
[11] = target: Tyrosine-protein kinase JAK2 (Homo sapiens) (UniProt O60674); conditions: Compound concentration 1000.0 nM
[12] = target: Serine/threonine-protein kinase 33 (Homo sapiens) (UniProt Q9BYT3); conditions: Compound concentration 1000.0 nM
[13] = target: Ribosomal protein S6 kinase alpha-2 (Homo sapiens) (UniProt Q15349); conditions: Compound concentration 1000.0 nM
[14] = test system: Hepatocyte growth factor receptor (Homo sapiens), P08581 [Y1235D]; conditions: Compound concentration 1000.0 nM
[15] = test system: Phosphatidylinositol 4,5-bisphosphate 3-kinase catalytic subunit alpha isoform (Homo sapiens), P42336 [E545K]; conditions: Compound concentration 1000.0 nM
[16] = target: Cyclin-dependent kinase 11A (Homo sapiens) (UniProt Q9UQ88); conditions: Compound concentration 1000.0 nM
[17] = target: Mitogen-activated protein kinase kinase kinase 15 (Homo sapiens) (UniProt Q6ZN16); conditions: Compound concentration 1000.0 nM
[18] = target: Serine/threonine-protein kinase PLK3 (Homo sapiens) (UniProt Q9H4B4); conditions: Compound concentration 1000.0 nM
[19] = target: Proto-oncogene tyrosine-protein kinase receptor Ret (Homo sapiens) (UniProt P07949); conditions: Compound concentration 1000.0 nM
[20] = target: Serine/threonine-protein kinase Nek9 (Homo sapiens) (UniProt Q8TD19); conditions: Compound concentration 1000.0 nM
[21] = target: Cyclin-dependent kinase 11B (Homo sapiens) (UniProt P21127); conditions: Compound concentration 1000.0 nM
Cyclin-dependent kinase 11B (Homo sapiens), sequence (P21127 whole entry): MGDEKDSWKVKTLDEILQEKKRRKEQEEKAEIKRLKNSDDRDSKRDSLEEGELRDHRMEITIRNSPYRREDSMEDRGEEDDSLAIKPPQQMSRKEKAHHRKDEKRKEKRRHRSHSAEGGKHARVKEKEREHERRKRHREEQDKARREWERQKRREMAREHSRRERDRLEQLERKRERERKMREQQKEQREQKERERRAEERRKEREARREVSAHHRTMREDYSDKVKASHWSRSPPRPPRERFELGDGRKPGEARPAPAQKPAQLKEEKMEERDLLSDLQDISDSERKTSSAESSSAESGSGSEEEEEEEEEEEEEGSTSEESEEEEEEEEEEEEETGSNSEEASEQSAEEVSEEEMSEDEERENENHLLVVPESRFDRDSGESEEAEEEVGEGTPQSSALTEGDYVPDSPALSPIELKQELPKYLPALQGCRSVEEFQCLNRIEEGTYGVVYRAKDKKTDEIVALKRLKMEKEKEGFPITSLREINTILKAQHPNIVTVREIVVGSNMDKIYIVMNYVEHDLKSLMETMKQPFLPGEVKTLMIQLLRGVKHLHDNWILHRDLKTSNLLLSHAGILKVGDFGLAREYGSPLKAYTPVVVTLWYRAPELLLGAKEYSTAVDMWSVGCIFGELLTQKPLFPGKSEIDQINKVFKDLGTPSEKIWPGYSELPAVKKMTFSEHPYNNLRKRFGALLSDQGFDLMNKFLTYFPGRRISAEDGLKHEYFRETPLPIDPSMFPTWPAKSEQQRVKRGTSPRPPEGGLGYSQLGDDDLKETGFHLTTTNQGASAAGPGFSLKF

[22] = test system: Receptor-type tyrosine-protein kinase FLT3 (Homo sapiens), P36888 [UNDEFINED MUTATION]; conditions: Compound concentration 1000.0 nM
[23] = target: Serine/threonine-protein kinase WNK2 (Homo sapiens) (UniProt Q9Y3S1); conditions: Compound concentration 1000.0 nM
[24] = target: Mitogen-activated protein kinase kinase kinase 6 (Homo sapiens) (UniProt O95382); conditions: Compound concentration 1000.0 nM
[25] = target: Receptor tyrosine-protein kinase erbB-3 (Homo sapiens) (UniProt P21860); conditions: Compound concentration 1000.0 nM
[26] = target: TRAF2 and NCK-interacting protein kinase (Homo sapiens) (UniProt Q9UKE5); conditions: Compound concentration 1000.0 nM
[27] = target: cAMP-dependent protein kinase catalytic subunit alpha (Homo sapiens) (UniProt P17612); conditions: Compound concentration 1000.0 nM
[28] = target: Serine/threonine-protein kinase LATS2 (Homo sapiens) (UniProt Q9NRM7); conditions: Compound concentration 1000.0 nM
[29] = test system: Tyrosine-protein kinase ABL1 (Homo sapiens), P00519 [H396P]; conditions: Compound concentration 1000.0 nM
[30] = target: Myosin-IIIb (Homo sapiens) (UniProt Q8WXR4); conditions: Compound concentration 1000.0 nM
Myosin-IIIb (Homo sapiens), sequence (Q8WXR4 whole entry): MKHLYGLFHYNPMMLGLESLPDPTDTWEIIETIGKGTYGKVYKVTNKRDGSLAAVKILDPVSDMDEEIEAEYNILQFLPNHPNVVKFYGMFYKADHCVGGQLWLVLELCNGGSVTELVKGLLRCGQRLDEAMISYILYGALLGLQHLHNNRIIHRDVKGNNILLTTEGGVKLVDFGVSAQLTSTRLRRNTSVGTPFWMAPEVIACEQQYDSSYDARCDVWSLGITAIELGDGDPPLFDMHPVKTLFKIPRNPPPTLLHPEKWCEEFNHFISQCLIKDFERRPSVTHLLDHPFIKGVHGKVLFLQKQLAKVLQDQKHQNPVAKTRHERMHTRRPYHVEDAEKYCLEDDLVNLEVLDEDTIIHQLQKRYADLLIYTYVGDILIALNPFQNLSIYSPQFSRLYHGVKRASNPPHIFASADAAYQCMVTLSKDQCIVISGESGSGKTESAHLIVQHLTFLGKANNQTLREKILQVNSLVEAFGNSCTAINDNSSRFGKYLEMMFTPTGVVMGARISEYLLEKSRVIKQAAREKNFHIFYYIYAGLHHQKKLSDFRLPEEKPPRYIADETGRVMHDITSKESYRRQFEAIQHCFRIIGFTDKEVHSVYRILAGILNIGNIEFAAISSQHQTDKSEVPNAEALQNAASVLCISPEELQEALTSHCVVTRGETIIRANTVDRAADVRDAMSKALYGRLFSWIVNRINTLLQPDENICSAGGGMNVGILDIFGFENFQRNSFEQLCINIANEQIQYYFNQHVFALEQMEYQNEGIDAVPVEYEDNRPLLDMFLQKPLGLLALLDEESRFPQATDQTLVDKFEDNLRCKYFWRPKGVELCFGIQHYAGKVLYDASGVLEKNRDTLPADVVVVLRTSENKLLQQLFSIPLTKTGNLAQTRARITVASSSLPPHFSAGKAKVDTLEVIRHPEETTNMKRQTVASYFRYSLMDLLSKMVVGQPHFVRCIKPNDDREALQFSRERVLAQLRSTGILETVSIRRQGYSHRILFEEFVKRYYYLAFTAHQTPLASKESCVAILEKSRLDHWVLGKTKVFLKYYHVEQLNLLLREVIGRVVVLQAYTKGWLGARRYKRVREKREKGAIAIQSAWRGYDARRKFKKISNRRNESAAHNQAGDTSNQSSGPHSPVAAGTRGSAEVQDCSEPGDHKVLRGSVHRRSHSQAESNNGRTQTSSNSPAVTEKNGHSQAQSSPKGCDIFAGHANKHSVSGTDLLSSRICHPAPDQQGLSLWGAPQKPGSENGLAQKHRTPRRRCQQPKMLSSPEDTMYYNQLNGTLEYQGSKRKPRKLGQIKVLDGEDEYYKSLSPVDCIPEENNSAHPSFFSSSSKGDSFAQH

[31] = target: Wee1-like protein kinase (Homo sapiens) (UniProt P30291); conditions: Compound concentration 1000.0 nM
Wee1-like protein kinase (Homo sapiens), sequence (P30291 whole entry, looked up): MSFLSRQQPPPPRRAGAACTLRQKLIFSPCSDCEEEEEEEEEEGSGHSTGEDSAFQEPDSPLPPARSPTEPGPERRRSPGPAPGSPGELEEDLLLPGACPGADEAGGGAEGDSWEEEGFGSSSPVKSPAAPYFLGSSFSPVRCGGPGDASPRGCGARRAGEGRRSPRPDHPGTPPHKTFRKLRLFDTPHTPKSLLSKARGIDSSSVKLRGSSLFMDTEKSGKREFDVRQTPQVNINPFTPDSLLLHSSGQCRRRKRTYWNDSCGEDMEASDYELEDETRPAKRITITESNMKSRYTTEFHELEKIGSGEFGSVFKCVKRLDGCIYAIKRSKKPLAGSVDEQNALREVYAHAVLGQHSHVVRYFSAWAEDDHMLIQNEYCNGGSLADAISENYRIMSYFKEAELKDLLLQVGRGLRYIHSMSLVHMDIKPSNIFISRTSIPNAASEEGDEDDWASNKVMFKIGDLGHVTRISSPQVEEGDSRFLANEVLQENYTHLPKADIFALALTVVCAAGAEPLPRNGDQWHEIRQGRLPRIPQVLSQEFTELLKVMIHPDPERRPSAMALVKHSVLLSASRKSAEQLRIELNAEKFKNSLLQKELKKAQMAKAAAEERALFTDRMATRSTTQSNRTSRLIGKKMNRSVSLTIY

[32] = target: Calcium/calmodulin-dependent protein kinase type II subunit alpha (Homo sapiens) (UniProt Q9UQM7); conditions: Compound concentration 1000.0 nM
[33] = target: Ribosomal protein S6 kinase beta-1 (Homo sapiens) (UniProt P23443); conditions: Compound concentration 1000.0 nM
[34] = target: Ephrin type-A receptor 7 (Homo sapiens) (UniProt Q15375); conditions: Compound concentration 1000.0 nM
[35] = target: Tyrosine-protein kinase JAK3 (Homo sapiens) (UniProt P52333); conditions: Compound concentration 1000.0 nM
[36] = target: Casein kinase I isoform gamma-2 (Homo sapiens) (UniProt P78368); conditions: Compound concentration 1000.0 nM
Casein kinase I isoform gamma-2 (Homo sapiens), sequence (P78368 whole entry, looked up, canonical isoform): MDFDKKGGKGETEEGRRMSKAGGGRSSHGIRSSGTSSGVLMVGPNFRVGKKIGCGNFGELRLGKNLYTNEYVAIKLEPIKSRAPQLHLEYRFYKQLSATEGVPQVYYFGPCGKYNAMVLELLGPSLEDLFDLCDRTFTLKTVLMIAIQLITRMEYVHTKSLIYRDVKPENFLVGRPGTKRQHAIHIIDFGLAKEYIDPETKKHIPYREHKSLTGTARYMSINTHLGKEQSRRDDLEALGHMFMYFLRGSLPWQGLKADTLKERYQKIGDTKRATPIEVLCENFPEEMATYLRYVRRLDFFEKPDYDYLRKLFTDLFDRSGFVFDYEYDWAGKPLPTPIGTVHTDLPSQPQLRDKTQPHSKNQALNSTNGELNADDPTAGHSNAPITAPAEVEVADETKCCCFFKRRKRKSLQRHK

[37] = target: Aurora kinase B (Homo sapiens) (UniProt Q96GD4); conditions: Compound concentration 1000.0 nM
Aurora kinase B (Homo sapiens), sequence (Q96GD4 whole entry): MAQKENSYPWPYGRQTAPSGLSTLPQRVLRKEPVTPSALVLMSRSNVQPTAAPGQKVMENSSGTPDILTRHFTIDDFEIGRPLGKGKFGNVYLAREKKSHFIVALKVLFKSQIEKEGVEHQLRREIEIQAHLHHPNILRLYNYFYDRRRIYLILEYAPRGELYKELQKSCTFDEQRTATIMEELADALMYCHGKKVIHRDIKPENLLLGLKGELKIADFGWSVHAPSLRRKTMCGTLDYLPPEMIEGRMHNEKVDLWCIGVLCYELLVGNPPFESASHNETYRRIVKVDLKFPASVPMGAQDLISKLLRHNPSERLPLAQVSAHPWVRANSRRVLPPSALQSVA

[38] = target: Vascular endothelial growth factor receptor 2 (Homo sapiens) (UniProt P35968); conditions: Compound concentration 1000.0 nM
[39] = target: Serine/threonine-protein kinase Nek2 (Homo sapiens) (UniProt P51955); conditions: Compound concentration 1000.0 nM
Serine/threonine-protein kinase Nek2 (Homo sapiens), sequence (P51955 whole entry): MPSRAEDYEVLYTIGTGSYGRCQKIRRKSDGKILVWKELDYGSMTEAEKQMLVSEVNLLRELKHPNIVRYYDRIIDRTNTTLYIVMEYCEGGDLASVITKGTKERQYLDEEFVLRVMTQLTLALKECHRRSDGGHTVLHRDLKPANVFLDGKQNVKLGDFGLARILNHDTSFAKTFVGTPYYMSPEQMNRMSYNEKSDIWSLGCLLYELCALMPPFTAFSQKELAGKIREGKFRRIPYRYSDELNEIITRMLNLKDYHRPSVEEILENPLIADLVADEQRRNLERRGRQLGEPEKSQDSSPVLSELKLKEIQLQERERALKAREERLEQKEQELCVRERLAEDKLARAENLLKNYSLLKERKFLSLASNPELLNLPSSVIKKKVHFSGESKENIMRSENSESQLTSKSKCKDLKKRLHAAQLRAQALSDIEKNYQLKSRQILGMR

[40] = target: Serine/threonine-protein kinase PAK 2 (Homo sapiens) (UniProt Q13177); conditions: Compound concentration 1000.0 nM
[41] = target: Mitogen-activated protein kinase 4 (Homo sapiens) (UniProt P31152); conditions: Compound concentration 1000.0 nM
[42] = target: Serine/threonine-protein kinase D1 (Homo sapiens) (UniProt Q15139); conditions: Compound concentration 1000.0 nM
Serine/threonine-protein kinase D1 (Homo sapiens), sequence (Q15139 whole entry): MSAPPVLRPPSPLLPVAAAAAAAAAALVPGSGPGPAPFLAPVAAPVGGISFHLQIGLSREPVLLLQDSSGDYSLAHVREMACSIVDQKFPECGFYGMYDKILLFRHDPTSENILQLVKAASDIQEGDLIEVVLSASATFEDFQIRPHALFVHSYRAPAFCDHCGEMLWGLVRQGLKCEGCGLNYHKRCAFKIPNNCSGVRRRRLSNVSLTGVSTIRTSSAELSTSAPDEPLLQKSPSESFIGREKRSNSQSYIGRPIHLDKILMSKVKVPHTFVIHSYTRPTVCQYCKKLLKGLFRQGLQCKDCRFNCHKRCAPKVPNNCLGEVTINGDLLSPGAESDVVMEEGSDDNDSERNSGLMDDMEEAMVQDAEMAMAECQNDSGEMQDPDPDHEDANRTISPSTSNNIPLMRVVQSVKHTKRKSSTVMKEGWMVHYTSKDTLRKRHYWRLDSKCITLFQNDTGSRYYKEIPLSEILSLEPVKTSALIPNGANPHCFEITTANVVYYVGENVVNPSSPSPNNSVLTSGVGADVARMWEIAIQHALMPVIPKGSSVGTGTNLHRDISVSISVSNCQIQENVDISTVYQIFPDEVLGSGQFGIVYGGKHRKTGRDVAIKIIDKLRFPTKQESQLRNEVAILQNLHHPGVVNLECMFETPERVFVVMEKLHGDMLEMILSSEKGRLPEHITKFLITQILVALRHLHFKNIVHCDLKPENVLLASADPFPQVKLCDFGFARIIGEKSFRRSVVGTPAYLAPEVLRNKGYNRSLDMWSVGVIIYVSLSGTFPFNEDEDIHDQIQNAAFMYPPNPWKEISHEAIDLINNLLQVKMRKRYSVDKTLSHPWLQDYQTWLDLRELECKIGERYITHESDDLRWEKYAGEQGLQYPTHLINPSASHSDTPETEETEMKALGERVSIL

[43] = target: Alpha-1B adrenergic receptor (Homo sapiens) (UniProt P35368); conditions: Compound concentration 10.0 uM
[44] = target: Serine/threonine-protein kinase 25 (Homo sapiens) (UniProt O00506); conditions: Compound concentration 1000.0 nM
[45] = target: Tyrosine-protein kinase Tec (Homo sapiens) (UniProt P42680); conditions: Compound concentration 1000.0 nM

O=C(NC[C@@H]1[C@H]2CN(C(=O)OCc3cc(C(F)(F)F)cc(C(F)(F)F)c3)C[C@@H]12)c1ccc2[nH]nnc2c1 [BI 2545]
inactive: inhibition [1] 14.2% | residual activity [2] 100% | residual activity [3] 100% | residual activity [4] 100% | residual activity [5] 89% | residual activity [6] 93% | residual activity [7] 100% | inhibition [8] 45.9% | residual activity [9] 97% | residual activity [10] 99% | residual activity [11] 100% | residual activity [12] 84% | residual activity [13] 84% | residual activity [14] 76% | residual activity [15] 100% | residual activity [16] 100% | residual activity [17] 53% | residual activity [18] 89% | residual activity [19] 100% | residual activity [20] 77% | residual activity [21] 100% | residual activity [22] 83% | residual activity [23] 84% | residual activity [24] 81% | residual activity [25] 96% | residual activity [26] 98% | residual activity [27] 100% | residual activity [28] 86% | residual activity [29] 84% | residual activity [30] 100% | residual activity [31] 100% | residual activity [32] 91% | residual activity [33] 86% | residual activity [34] 96% | residual activity [35] 69% | residual activity [36] 100% | residual activity [37] 84% | residual activity [38] 96% | residual activity [39] 100% | residual activity [40] 100% | residual activity [41] 80% | residual activity [42] 100% | inhibition [43] 33.4% | residual activity [44] 95% | residual activity [45] 100%

Cc1nccc(COC(=O)N2C[C@@H]3[C@@H](CNC(=O)c4ccc5[nH]nnc5c4)[C@@H]3C2)n1 [BI 3017]
inactive: inhibition [1] 16.1% | residual activity [2] 90% | residual activity [3] 98% | residual activity [4] 100% | residual activity [5] 66% | residual activity [6] 100% | residual activity [7] 100% | inhibition [8] 27.1% | residual activity [9] 100% | residual activity [10] 100% | residual activity [11] 93% | residual activity [12] 93% | residual activity [13] 91% | residual activity [14] 92% | residual activity [15] 86% | residual activity [16] 100% | residual activity [17] 95% | residual activity [18] 73% | residual activity [19] 93% | residual activity [20] 100% | residual activity [21] 100% | residual activity [22] 100% | residual activity [23] 79% | residual activity [24] 78% | residual activity [25] 59% | residual activity [26] 100% | residual activity [27] 88% | residual activity [28] 97% | residual activity [29] 93% | residual activity [30] 100% | residual activity [31] 100% | residual activity [32] 65% | residual activity [33] 84% | residual activity [34] 89% | residual activity [35] 96% | residual activity [36] 96% | residual activity [37] 93% | residual activity [38] 80% | residual activity [39] 100% | residual activity [40] 100% | residual activity [41] 94% | residual activity [42] 100% | inhibition [43] 30.2% | residual activity [44] 100% | residual activity [45] 94%
